Assay results from patent US20050175599A1, “Process for producing substance” (Kyowa Hakko Kogyo Co., Ltd., priority 2001, published 2005).

Test system: transformant cell line NS0/LCA-CCR4 producing chimeric anti-CCR4 antibody
Experiment: Batch culture of antibody-producing cells in Q10-containing serum fraction-added medium (Example 4)
Assay type: cell-based, mouse
Conditions: 100 μmol/L Q10 (added as SANOMIT), 4th day
Method: The batch culture was performed using transformant cell line NS0/LCA-CCR4 (FERM BP-7964) producing chimeric anti-CCR4 antibody as prepared in Reference Example 1. […]
The cumulative number of viable cells is shown as the total sum of the viable cell density multiplied by the time as elapsed. In the present Example, as the viable cell density was measured once, the cumulative number of viable cells was calculated by the following equation as a trapezoidal area formed by the change of the cell density with time related to the inoculated cell density and the measured cell density. Cumulative number of viable cells (cells/mL×days)=(inoculated cell density+measured cell density)×time as elapsed÷2
The specific antibody production rate and the relative specific antibody production rate were calculated respectively by the method described in Example 1.
(3) Quantitative Determination of an Antibody in a Culture Supernatant by IgG-ELISA
The concentration of chimeric anti-CCR4 antibody in the culture supernatant was measured as follows. […]

For `COC1=C(OC)C(=O)C(C/C=C(\C)CC/C=C(\C)CC/C=C(\C)CC/C=C(\C)CC/C=C(\C)CC/C=C(\C)CC/C=C(\C)CC/C=C(\C)CC/C=C(\C)CCC=C(C)C)=C(C)C1=O` [Q10], the “cumulative number of cells on the completion of culturing” value (Q10-free culture 1.59×10^6) was 1.34×10^6 cells/mL×days and the “relative specific antibody production rate” value (Q10-free culture = 100%) was 131.9%.
